Experimental data reported in patent US5023262A, “Hydrogenated rapamycin derivatives” (American Home Products Corporation, priority 1990, dated 1991).
Values after ≈ are worked out from the molar mass of the structure shown.

How the values were obtained:
[1] = system: cells from the thymus of normal BALB/c mice; test: Comitogen-induced thymocyte proliferation procedure (LAF); assay type: cell-based; conditions: in vitro, rapamycin 1.0, 72 hours culture with PHA and IL-1
Experimental: (§1) Immunosuppressive activity was evaluated in an in vitro standard pharmacological test procedure to measure lymphocyte proliferation (LAF) and in two in vivo standard pharmacological test procedures. The first in vivo procedure was a popliteal lymph node (PLN) test procedure which measured the effect of compounds of this invention on a mixed lymphocyte reaction and the second in vivo procedure evaluated the survival time of a pinch skin graft.
Briefly, cells from the thymus of normal BALB/c mice are cultured for 72 hours with PHA and IL-1 and pulsed with tritiated thymidine during the last six hours. […] Cells are harvested and incorporated; radioactivity is determined. Inhibition of lymphoproliferation is assessed in percent change in counts per minute from non-drug treated controls. The results are expressed by the following ratio: [formula]

[2] = system: Candida albicans 3669; test: Antifungal plate test, inhibition of Candida albicans 3669; assay type: cell-based; conditions: strain 3669; for MIC: Candida albicans, read-out: MIC to inhibit growth
Experimental: (§2) The following represents the typical procedure used. Compound to be tested was placed on sterile dried 1/4" plate disks, and allowed to dry. Agar plates were seeded with fungi and allowed to solidify. The impregnated disks were placed on the seeded Agar surface and incubated for the time required for the particular culture. Results are expressed in MIC (μg/ml) to inhibit growth.

[3] = system: Candida albicans ATCC 38247; test: Antifungal plate test, inhibition of Candida albicans ATCC 38247; assay type: cell-based; conditions: for MIC: Candida albicans, ATCC38247, read-out: MIC to inhibit growth
Experimental: as §2

[4] = system: pinch skin graft from male DBA/2 donors; test: Survival time of pinch skin graft; assay type: in vivo, male BALB/c mice (recipients); conditions: intraperitoneally; mean ± S.D.
Experimental: as §1
The second in vivo test procedure is designed to determine the survival time of pinch skin graft from male DBA/2 donors transplanted to male BALB/c recipients. The method is adapted from Billingham R. E. and Medawar P. B., J. Exp. Biol. 28:385-402, (1951). Briefly, a pinch skin graft from the donor is grafted on the dorsum of the recipient as a homograft, and an autograft is used as control in the same region. […] Untreated recipients serve as rejection control. The graft is monitored daily and observations are recorded until the graft becomes dry and forms a blackened scab. This is considered as the rejection day. The mean graft survival time (number of days±S.D.) of the drug treatment group is compared with the control group.

[5] = system: Candida albicans ATCC 38246; test: Antifungal plate test, inhibition of Candida albicans ATCC 38246; assay type: cell-based; conditions: for MIC: Candida albicans, ATCC38246, read-out: MIC to inhibit growth
Experimental: as §2

[6] = system: Candida albicans ATCC 10231; test: Antifungal plate test, inhibition of Candida albicans ATCC 10231; assay type: cell-based; conditions: for MIC: Candida albicans, ATCC10231, read-out: MIC to inhibit growth
Experimental: as §2

[7] = system: Candida albicans ATCC 38248; test: Antifungal plate test, inhibition of Candida albicans ATCC 38248; assay type: cell-based; conditions: for MIC: Candida albicans, ATCC38248, read-out: MIC to inhibit growth
Experimental: as §2

[8] = system: mixed lymphocyte reaction in popliteal lymph node; test: In vivo popliteal lymph node (PLN) test procedure; set-up: species or system C3H mice (BALB/c donors); conditions: for PLN Assay (ratio): in vivo, rapamycin 1.0, p.o. daily Day 0 to Day 4
Experimental: as §1
A mixed lymphocyte reaction (MLR) occurs when lymphoid cells from genetically distinct animals are combined in tissue culture. Each stimulates the other to undergo blast transformation which results in increased DNA synthesis that can be quantified by the incorporation of tritiated thymidine. Since stimulating a MLR is a function of disparity at Major Histocompatibility antigens, an in vivo popliteal lymph node (PLN) test procedure closely correlates to host vs. graft disease. Briefly, irradiated spleen cells from BALB/c donors are injected into the right hind foot pad of recipient C3H mice. The drug is given daily, p.o. from Day 0 to Day 4. On Day 3 and Day 4, tritiated thymidine is given i.p., b.i.d. On Day 5, the hind popliteal lymph nodes are removed and dissolved, and radioactivity counted. The corresponding left PLN serves as the control for the PLN from the injected hind foot. Percent suppression is calculated using the non-drug treated animals as allogenic control. […] Results are expressed by the following ratio: [formula]

[9] = system: transplant rejection; conditions: cited from earlier work
[10] = system: IgE-like antibodies; conditions: in vivo; cited from earlier work
[11] = alone or in combination with picibanil; cited from earlier work
[12] = system: Candida albicans; conditions: in vitro and in vivo; cited from earlier work
[13] = system: multiple sclerosis; conditions: in vivo; cited from earlier work

Row | Molecule | LAF Assay (ratio) [1] | MIC to inhibit growth [2] [µg/mL] | MIC to inhibit growth [3] [µg/mL] | Skin Graft Assay (days + SD), mean graft survival time [4] [days] | MIC to inhibit growth [5] [µg/mL] | MIC to inhibit growth [6] [µg/mL] | MIC to inhibit growth [7] [µg/mL] | MIC [2] [µg/mL] | PLN Assay (ratio) [8] | MIC [3] [µg/mL] | MIC [5] [µg/mL] | MIC [6] [µg/mL] | MIC [7] [µg/mL] | inhibition of transplant rejection / immunosuppressive effect [9] | Percent suppression (PLN) ([8]; 6 mg/kg, p.o.) [%] | inhibition of formation of IgE-like antibodies [10] | antitumor activity [11] | antifungal activity [12] | effect in experimental allergic encephalomyelitis model [13]
1 | 1,2,3,4-Tetrahydrorapamycin [Example 2] | 0.036 | 0.0125 | 0.006 | 7.0 ± 0.9 | 0.05 | 0.006 | 0.0125 |  |  |  |  |  |  |  |  |  |  |  | 
2 | CO[C@H]1C[C@@H]2CC[C@@H](C)[C@@](O)(O2)C(=O)C(=O)N2CCCC[C@H]2C(=O)O[C@H]([C@H](C)C[C@@H]2CC[C@@H](O)[C@H](OC)C2)CC(=O)[C@H](C)/C=C(\C)[C@@H](O)[C@@H](OC)C(=O)[C@H](C)C[C@H](C)CC/C=C/C=C/1C [Example 1, 1,2-Dihydrorapamycin] |  |  |  | 7.3 ± 0.9 |  |  |  | 0.2 (≈ 0.218 µM) | -1.67 | > 0.4 | 0.2 (≈ 0.218 µM) | 0.4 (≈ 0.437 µM) | 0.2 (≈ 0.218 µM) |  |  |  |  |  | 
3 | C=CC[C@@H]1/C=C(\C)C[C@H](C)C[C@H](OC)[C@H]2O[C@@](O)(C(=O)C(=O)N3CCCC[C@H]3C(=O)O[C@H](/C(C)=C/[C@@H]3CC[C@@H](O)[C@H](OC)C3)[C@H](C)[C@@H](O)CC1=O)[C@H](C)C[C@@H]2OC [FK-506] |  |  |  |  |  |  |  |  |  |  |  |  |  | effective as immunosuppressive agents |  |  |  |  | 
4 | CO[C@H]1C[C@@H]2CC[C@@H](C)[C@@](O)(O2)C(=O)C(=O)N2CCCC[C@H]2C(=O)O[C@H]([C@H](C)C[C@@H]2CC[C@@H](O)[C@H](OC)C2)CC(=O)[C@H](C)/C=C(\C)[C@@H](O)[C@@H](OC)C(=O)[C@H](C)C[C@H](C)/C=C/C=C/C=C/1C [Rapamycin, rapamycin] |  |  |  | 12.0 ± 1.7 |  |  |  | 0.025 (≈ 0.0273 µM) | 1.0 | 0.003 (≈ 0.00328 µM) | 0.025 (≈ 0.0273 µM) | 0.003 (≈ 0.00328 µM) | 0.006 (≈ 0.00656 µM) | effective in inhibiting transplant rejection | 86 | effectively inhibited the formation of IgE-like antibodies | antitumor activity | antifungal activity, particularly against Candida albicans, both in vitro and in vivo | effective in the experimental allergic encephalomyelitis model
